Results as given in publication PMC9228811, “Identification and Characterization of a Potential Antimicrobial Peptide Isolated from Soil Brevibacillus sp. WUL10 and Its Activity against MRSA Pathogens” (Tropical Medicine and Infectious Disease, 2022).
Converted amounts (≈) assume the structure as drawn. Read-outs that look alike come from different tables or passages of the source. No end group written: not given here.

Experiments:
S. aureus TISTR 517 [1] = assay: microbe, parasite or virus in culture; format: cell-based, Staphylococcus aureus
Experimental: (§1) Determination of MIC by broth microdilution was followed the Clinical and Laboratory Standard Institute (CLSI) guidelines. Cation-adjusted Mueller–Hinton broth (CAMHB) was used as a diluent. The purified substance (100 μL) was prepared by making the 2-fold dilution in the range of 0.125–32 μg/mL, and an aliquot (10 μL) of diluted suspension of the indicator strains (5 × 10^5 CFU/mL) was added into each well. Indicator strains without sample were a positive control, while CAMHB alone was the negative control. The 96-well plates were incubated at 37 °C for 24 h and measured the bacterial growth. […] MBC was determined by further spreading 10 µL of sample in each well on MH agar and incubated at 37 °C overnight.
(§2) The peptide sequence of the purified substance of WUL10 was analyzed by the Q-Exactive HF LC-MS/MS Orbitrap system. Briefly, the protonated peptides were first desalted on-line on a reverse-phase C18 PepMap 100 trapping column before being resolved onto a C18 PepMap 100 capillary column with a 70 min gradient of 0.1% HCO2H/H2O (mobile phase (MP): A) and 0.1% HCO2H/CH3CN (MP: B) at a flow rate of 300 nL/min. Peptides were analyzed by applying a data-dependent Top5 acquisition mode followed by a higher-energy collisional dissociation (HCD) at collision energy of 28. Full-scan (MS) mass spectra were acquired from m/z 400 to 2000 with an AGC target set at 3 × 10^6 ions and a resolution of 120,000. MS/MS scan was initiated when the ACG target reached 2 × 10^5 ions and a resolution of 30,000. The raw LC-MS file from LC-MS/MS was imported to PeakX studio 10.0 (Bioinformatics Solutions Inc., Waterloo, CA, USA). The peptide ion intensity with +2 to +5 charge states was automated de novo peptide sequenced with default parameters with minor modifications. Briefly, mass error tolerance for MS and MS/MS were 15 ppm and 0.1 Da, respectively. HCD-fragmentation series on b- and y-ion series were used to predict the peptide sequence. The confidence score was set at the high level of confidence to obtain a reliable set of high-precision peptides. The acceptable de novo peptide sequences were achieved by filtering average local confidence (ALC) to ≥50%. The acceptable peptide sequences with an average local confidence (ALC) threshold of ≥50% were submitted to the antimicrobial peptide scanner to analyze the probability of antimicrobial peptides. A number of resulting peptides (18 synthetic peptides) were synthesized by Kelowna International Scientific Inc. (Taipei City, Taiwan) with purity of more than 85%, and they were prepared in a 2-fold dilution with CAMHB before examining the antimicrobial activity by broth microdilution. MIC and MBC were measured from 3 independent replicates.

MRSA isolate 142 [2] = assay: Agar well diffusion assay; format: cell-based, Staphylococcus aureus; conditions: Table 1 experiment, mean ± SD, n = 3
Experimental: (§3) WUL10 colony was inoculated in 50 mL of half formula of Luria-Bertani (half LB) broth (Titan Biotech Ltd., Rajasthan, India), and incubated at 30 °C, 150 rpm overnight. The culture was adjusted the turbidity equivalent to 0.5 McFarland standard by 0.85% NaCl, and then, 2 mL of this preculture was transferred in 200 mL of half LB broth. The culture was shaken at 30 °C, 150 rpm for 7 days, and an aliquot of samples (2 mL) was collected at different time interval. One mL of sample was measured the cell growth by spectrophotometer at 625 nm (Thermo Fisher Scientific, Waltham, MA, USA). The remaining sample was centrifuged at 10,000× g, 4 °C for 30 min (Sigma-Aldrich Co., St. Louis, MO, USA), and the CFS was examined for the antimicrobial activity against all indicator strains by agar well diffusion assay. Three replicates of experiments were carried out, and the zone of inhibition was reported as mean ± SD.
(§4) The colonies of indicator strains were inoculated in 9 mL of sterile 0.85% NaCl, and the cell suspensions were adjusted the turbidity comparably to 0.5 McFarland standard. They were swabbed onto the MH agar, and the wells were punched onto the agar using a pipette tip. One hundred µL of CSF or purified substance of WUL10 was loaded into each well, and the plates were incubated at 37 °C for 24 h. […] The experiments were performed in three independent experiments, and the inhibition zone was measured and reported as mean ± SD [21].

MRSA isolate 2468 [3] = assay: Agar well diffusion assay; format: cell-based, Staphylococcus aureus; conditions: mean ± SD, n = 3
Experimental: as §3, §4

S. aureus TISTR 517 [4] = assay: Agar well diffusion assay; format: cell-based, Staphylococcus aureus; conditions: mean ± SD, n = 3
Experimental: as §3, §4

MRSA isolate 1096 [5] = assay: Agar well diffusion assay; format: cell-based, Staphylococcus aureus; conditions: Table 1 experiment, mean ± SD, n = 3
Experimental: as §3, §4

MRSA isolate 142 [6] = assay: Broth microdilution MIC and MBC (CLSI); format: cell-based; conditions: Staphylococcus aureus
Experimental: as §1

MRSA isolate 1096 [7] = assay: Broth microdilution MIC and MBC (CLSI); format: cell-based; conditions: Staphylococcus aureus
Experimental: as §1

MRSA isolate 2468 [8] = assay: microbe, parasite or virus in culture; format: cell-based, Staphylococcus aureus
Experimental: as §1, §2

[9] = antibiotic 30 µg, Table 1 experiment
[10] = antibiotic 30 µg, Table 4 experiment
[11] = antibiotic 1 µg, Table 1 experiment
[12] = broth microdilution, CAMHB, 37 °C 24 h, n = 3

CO[C@@]1(NC(=O)Cc2cccs2)C(=O)N2C(C(=O)O)=C(COC(N)=O)CS[C@@H]21 [Cefoxitin]
MIC (S. aureus TISTR 517 [1]; Staphylococcus aureus, TISTR517, broth microdilution, CAMHB, 37 °C 24 h, n = 3, read-out: MIC): 2 µg/mL (≈ 4.68 µM)
Zone of Inhibition (MRSA isolate 142 [2]; antibiotic 30 µg): 0.00 ± 0.00 mm
Zone of Inhibition (MRSA isolate 2468 [3]; [9]): 0.00 ± 0.00 mm
Zone of Inhibition (S. aureus TISTR 517 [4]; [9]): 32.68 ± 0.15 mm
Zone of Inhibition (S. aureus TISTR 517 [4]; [10]): 32.77 ± 0.55 mm
Zone of Inhibition (MRSA isolate 1096 [5]; antibiotic 30 µg): 0.00 ± 0.00 mm

Cc1onc(-c2ccccc2)c1C(=O)N[C@@H]1C(=O)N2[C@@H]1SC(C)(C)[C@@H]2C(=O)O [Oxacillin]
Zone of Inhibition (MRSA isolate 142 [2]; antibiotic 1 µg): 0.00 ± 0.00 mm
Zone of Inhibition (MRSA isolate 2468 [3]; [11]): 0.00 ± 0.00 mm
Zone of Inhibition (S. aureus TISTR 517 [4]; [11]): 29.29 ± 0.39 mm
Zone of Inhibition (MRSA isolate 1096 [5]; antibiotic 1 µg): 0.00 ± 0.00 mm

CN[C@H](CC(C)C)C(=O)N[C@H]1C(=O)N[C@@H](CC(N)=O)C(=O)N[C@H]2C(=O)N[C@H]3C(=O)N[C@H](C(=O)N[C@H](C(=O)O)c4cc(O)cc(O)c4-c4cc3ccc4O)[C@H](O)c3ccc(c(Cl)c3)Oc3cc2cc(c3O[C@@H]2O[C@H](CO)[C@@H](O)[C@H](O)[C@H]2O[C@H]2C[C@](C)(N)[C@H](O)[C@H](C)O2)Oc2ccc(cc2Cl)[C@H]1O [Vancomycin]
MBC (MRSA isolate 142 [6]): 2 µg/mL (≈ 1.38 µM)
MIC (MRSA isolate 142 [6]; 24 h): 2 µg/mL (≈ 1.38 µM)
MBC (MRSA isolate 1096 [7]): 2 µg/mL (≈ 1.38 µM)
MIC (MRSA isolate 1096 [7]; 24 h): 2 µg/mL (≈ 1.38 µM)
MBC (MRSA isolate 2468 [8]; Staphylococcus aureus): 2 µg/mL (≈ 1.38 µM)
MIC (MRSA isolate 2468 [8]; Staphylococcus aureus, 24 h): 2 µg/mL (≈ 1.38 µM)
MBC (S. aureus TISTR 517 [1]; Staphylococcus aureus, TISTR517): 2 µg/mL (≈ 1.38 µM)
MIC (S. aureus TISTR 517 [1]; Staphylococcus aureus, TISTR517, 24 h): 2 µg/mL (≈ 1.38 µM)
Zone of Inhibition (MRSA isolate 2468 [3]; [10]): 26.75 ± 0.18 mm

KVLVKYLGGLLKLAALMV [synthetic peptide]
MIC (MRSA isolate 2468 [8]; [12]): 16 µg/mL
MIC (S. aureus TISTR 517 [1]; [12]): 16 µg/mL
